pIC50: −log10 of the molar value. “And” between values parts separate entries of the source, which are not always exact repeats. Identical values can stand only once. Like-named read-outs stand apart in the source and are kept apart here.
How the values were obtained:
[1] = Pharmacokinetic study, IP administration in male CD-1 mice; assay type: in vivo
[2] = Mouse Liver Microsome stability assay; assay type: in vitro ADME; settings: mouse liver microsomes
[3] = Pharmacokinetic study, IV administration in male CD-1 mice; assay type: in vivo
Axl+ Ba/F3 cells = molecular target: T1, Axl+ Ba/F3 cells (Homo sapiens, UniProt P30530); test: Ba/F3 proliferation assay, Axl+; assay type: cell-based; settings: Tables 7 and 8; read-out: Ba/F3 line IC50, Axl+
T1 sequence (P30530 1-894): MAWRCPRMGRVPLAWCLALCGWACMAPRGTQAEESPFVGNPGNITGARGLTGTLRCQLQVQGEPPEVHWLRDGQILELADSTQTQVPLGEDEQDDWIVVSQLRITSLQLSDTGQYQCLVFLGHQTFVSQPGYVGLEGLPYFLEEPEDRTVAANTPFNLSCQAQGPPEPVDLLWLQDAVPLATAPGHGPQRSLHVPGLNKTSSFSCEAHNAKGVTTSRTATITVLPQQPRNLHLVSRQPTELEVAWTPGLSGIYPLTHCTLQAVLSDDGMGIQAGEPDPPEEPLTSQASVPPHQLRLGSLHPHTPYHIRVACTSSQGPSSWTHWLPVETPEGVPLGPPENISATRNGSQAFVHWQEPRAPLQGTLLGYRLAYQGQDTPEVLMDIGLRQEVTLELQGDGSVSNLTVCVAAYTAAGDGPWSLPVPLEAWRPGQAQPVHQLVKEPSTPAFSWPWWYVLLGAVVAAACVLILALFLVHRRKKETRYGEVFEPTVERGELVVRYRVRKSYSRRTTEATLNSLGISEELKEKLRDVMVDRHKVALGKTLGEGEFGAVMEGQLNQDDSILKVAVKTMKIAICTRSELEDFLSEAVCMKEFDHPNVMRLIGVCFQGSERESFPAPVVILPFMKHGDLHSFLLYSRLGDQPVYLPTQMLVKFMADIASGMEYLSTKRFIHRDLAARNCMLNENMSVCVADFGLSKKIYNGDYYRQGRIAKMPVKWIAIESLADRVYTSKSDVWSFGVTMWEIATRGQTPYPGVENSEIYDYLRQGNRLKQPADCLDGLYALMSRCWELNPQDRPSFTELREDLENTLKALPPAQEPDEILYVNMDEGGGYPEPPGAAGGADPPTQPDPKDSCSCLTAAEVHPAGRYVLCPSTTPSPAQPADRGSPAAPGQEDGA
Procedure: To validate the screen and test the effectiveness of counter-screening with either the same 2YF/3wt Ba/F3 cell line or the parental Ba/F3's in the presence of IL-3 to remove cytotoxic primary hits, we first tested a panel of kinase inhibitors with established mechanisms of action.
For Axl+ cells, the transduced cells were spun down at 500×g for 5 min and resuspended in media supplemented with 10 ng/mL IL-3 and 3 μg/mL puromycin (Invitrogen). Cells were maintained in these conditions for 7 days, passaging as required. After 7 days the cells were spun down, washed with fresh media, and then suspended in IL-3 free media. The cells were maintained in these conditions for 2 weeks to select for an IL-3 independent population of Axl+ driven cells.
Proliferation Assays. For adherent cell lines, cells were plated onto opaque white 96 well plates (Greiner cat #655083) and allowed to adhere overnight. The following day media was changed to fresh media that contained either DMSO or the indicated concentration of drug plus NRG (50 ng/mL final concentration) as indicated. Plates were incubated at 37° C. for 72 h and proliferation was read out using Cell Titer Glo (Promega) according to the manufacturer's protocol. For Ba/F3 cell proliferation, cells, drug dilution, and any necessary growth factors (10 ng/mL IL-3 or 6.25 ng/mL NRG) were combined in a well of a 96 well plate. Plates were incubated at 37° C. for 48 h and proliferation was read out using Cell Titer Glo according to the manufacturer's protocol. For all normalized assays, proliferation was normalized to the DMSO control condition. All graphs were plotted in GraphPad Prism 6 and fit with a non-linear regression of the log(inhibitor) vs response with a variable slope where shown. All graphs are averages (+/−standard deviation) of biological triplicates each performed in technical triplicate unless otherwise noted. If only one biological replicate was performed standard deviations were derived from the technical replicates.

[4] = tested on: parental Ba/F3 cells + IL-3; test: Ba/F3 proliferation assay, Parental + IL-3; assay type: cell-based; settings: Mus musculus, BaF3; Tables 7 and 8; read-out: Ba/F3 line IC50, Parental + IL-3
Procedure, shortened: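 Ba/F3 cells were combined with drug dilutions plus growth factor (10 ng/mL IL-3, or 6.25 ng/mL NRG where needed) and incubated 48 h at 37 °C. Viability read by CellTiter-Glo, normalized to DMSO. Log(inhibitor)-response fit with variable slope; biological triplicates.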

[5] = molecular target: 2YF/3wt + NRG Ba/F3 cells (HER2YF/HER3wt) (Homo sapiens, UniProt P04626, Y1005F/Y1023F/Y1112F/Y1127F/Y1139F/Y1196F/Y1221F/Y1222F/Y1248F, cells depend on it); test: Ba/F3 proliferation assay, 2YF/3wt + NRG; assay type: cell-based; settings: Tables 7 and 8; read-out: Ba/F3 line IC50, HER2YF/HER3 + NRG
Chain of 2YF/3wt + NRG Ba/F3 cells (HER2YF/HER3wt) (P04626 whole entry Y1005F/Y1023F/Y1112F/Y1127F/Y1139F/Y1196F/Y1221F/Y1222F/Y1248F): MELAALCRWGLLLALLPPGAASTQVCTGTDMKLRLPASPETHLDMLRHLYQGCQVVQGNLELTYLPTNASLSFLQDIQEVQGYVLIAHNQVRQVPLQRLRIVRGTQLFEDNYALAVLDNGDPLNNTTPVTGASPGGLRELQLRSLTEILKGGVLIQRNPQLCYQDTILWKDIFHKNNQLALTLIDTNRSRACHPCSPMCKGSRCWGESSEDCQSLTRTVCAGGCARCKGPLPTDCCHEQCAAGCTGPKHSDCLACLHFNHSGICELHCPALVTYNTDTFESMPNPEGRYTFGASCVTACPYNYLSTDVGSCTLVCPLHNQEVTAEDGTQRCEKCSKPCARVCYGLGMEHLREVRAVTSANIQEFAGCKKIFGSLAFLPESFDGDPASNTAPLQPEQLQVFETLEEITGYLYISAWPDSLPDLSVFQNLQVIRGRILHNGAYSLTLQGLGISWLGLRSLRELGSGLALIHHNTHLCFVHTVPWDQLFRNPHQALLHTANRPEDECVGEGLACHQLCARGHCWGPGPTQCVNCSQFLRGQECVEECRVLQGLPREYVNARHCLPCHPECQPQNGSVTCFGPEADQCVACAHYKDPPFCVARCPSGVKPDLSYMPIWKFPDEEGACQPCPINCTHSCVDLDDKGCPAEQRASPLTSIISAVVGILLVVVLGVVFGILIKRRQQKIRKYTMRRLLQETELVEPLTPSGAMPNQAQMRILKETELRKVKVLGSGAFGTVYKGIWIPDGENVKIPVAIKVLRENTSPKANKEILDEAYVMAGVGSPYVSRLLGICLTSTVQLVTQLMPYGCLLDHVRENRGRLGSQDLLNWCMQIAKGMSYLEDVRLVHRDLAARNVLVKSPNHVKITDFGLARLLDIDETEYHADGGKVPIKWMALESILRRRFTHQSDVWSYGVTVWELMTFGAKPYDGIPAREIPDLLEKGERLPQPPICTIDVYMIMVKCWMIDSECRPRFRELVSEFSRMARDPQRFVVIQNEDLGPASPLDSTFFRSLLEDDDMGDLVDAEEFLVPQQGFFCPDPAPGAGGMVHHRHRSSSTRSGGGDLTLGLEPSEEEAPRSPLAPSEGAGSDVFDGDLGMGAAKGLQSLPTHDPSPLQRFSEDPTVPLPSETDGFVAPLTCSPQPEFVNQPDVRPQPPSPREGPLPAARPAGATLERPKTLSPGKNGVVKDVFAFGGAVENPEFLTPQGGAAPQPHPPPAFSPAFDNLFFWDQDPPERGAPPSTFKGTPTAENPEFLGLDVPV
Procedure, shortened: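 Ba/F3 cells stably expressing HER3 and HER2 with 9 C-terminal Tyr→Phe mutations, selected for NRG dependence after IL-3 withdrawal. Cells were given DMSO or compound plus NRG (50 ng/mL final); proliferation normalized to DMSO, fit by log(inhibitor) vs response with variable slope.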

HER2+/2VE Ba/F3 line = test: Ba/F3 proliferation assay, HER2+/2VE; assay type: cell-based; settings: Mus musculus, BaF3; Tables 7 and 8
Procedure, shortened: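 Ba/F3 cells combined with drug dilutions and growth factor as needed (10 ng/mL IL-3 or 6.25 ng/mL NRG), 48 h at 37° C. Proliferation by CellTiter-Glo, normalized to DMSO, fitted to log(inhibitor) vs response with variable slope; biological triplicates in technical triplicate.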

[6] = IP 2.0 mg/kg, individual mice M1-M3
[7] = IP 2.0 mg/kg, individual mice M1-M3, 2 mg/kg
[8] = IP 2.0 mg/kg, plasma, individual mice M1-M3, 2 mg/kg
[9] = male, CD-1, mouse, plasma, ip, 2 mg/kg, Mean
[10] = male, CD-1, mouse, plasma, ip, 2 mg/kg, individual mice M1-M3
[11] = IV 2.0 mg/kg, individual mice M1-M3, 2 mg/kg
[12] = IV 2.0 mg/kg, plasma, individual mice M1-M3, 2 mg/kg
[13] = male, CD-1, mouse, plasma, iv, 2 mg/kg, Mean
[14] = male, CD-1, mouse, plasma, iv, 2 mg/kg, individual mice M1-M3

COc1ccc(-c2ccc(F)cc2)cc1Nc1ncnc2[nH]nc(-c3cc[nH]n3)c12 [8168C]
Plasma Concentration at 5.00 h ([1]; IP 2.0 mg/kg, Mean): BLQ
Plasma Concentration at 8.00 h ([1]; IP 2.0 mg/kg, Mean): BLQ
Plasma Concentration at 24.00 h ([1]; IP 2.0 mg/kg, Mean): BLQ
Plasma Concentration at 8.00 h [1, 6]: BLQ
Plasma Concentration at 24.00 h [1, 6]: BLQ
Plasma Concentration at 0.25 h [1, 7]: 306.24 ng/mL and 169.92 ng/mL
Plasma Concentration at 1.00 h [1, 7]: 69.88 ng/mL and 66.74 ng/mL
Plasma Concentration at 3.00 h [1, 7]: 9.75 ng/mL and 2.05 ng/mL and BLQ
Plasma Concentration at 5.00 h [1, 7]: BLQ
AUCExtra ([1]; IP 2.0 mg/kg, plasma, Mean): 0.96%
AUC0-inf [1, 8]: 197.83 ng·h/mL
AUC0-last [1, 8]: 208.92 ng·h/mL and 196.69 ng·h/mL and 104.05 ng·h/mL
AUCExtra [1, 8]: 1.35% and 0.57%
AUCall [1, 8]: 208.92 ng·h/mL and 196.69 ng·h/mL and 104.05 ng·h/mL
Cmax [1, 8]: 306.24 ng/mL and 169.92 ng/mL
Half-life (T½) [1, 8]: 47.4 min and 22.8 min
MRT0-last [1, 8]: 63.6 min and 40.2 min and 30 min
Half-life (T½) ([1]; male, CD-1, mouse, plasma, intraperitoneal, 2 mg/kg, IP 2.0 mg/kg, Mean, read-out: Oral T½ (converted)): 35.4 min
AUC [1, 9]: 170 ng·h/mL
AUC(0-t) [1, 9]: 170 ng·h/mL
concentration at 0.25 h [1, 9]: 228 ng/mL
concentration at 1 h [1, 9]: 73.9 ng/mL
concentration at 3 h [1, 9]: 5.9 ng/mL
AUC0-inf ([1]; male, CD-1, mouse, plasma, ip, 2 mg/kg, Mean, read-out: AUC0-inf): 205 ng·h/mL
Cmax ([1]; male, CD-1, mouse, plasma, ip, 2 mg/kg, Mean, read-out: Cmax): 228 ng/mL
MRT last ([1]; male, CD-1, mouse, plasma, ip, 2 mg/kg, Mean, read-out: MRT0-last): 44.4 min
concentration at 0.25 h [1, 10]: 207 ng/mL
concentration at 1 h [1, 10]: 85.2 ng/mL
concentration at 5 h [1, 10]: 2.52 ng/mL
AUC0-inf ([1]; male, CD-1, mouse, plasma, ip, 2 mg/kg, individual mice M1-M3, read-out: AUC0-inf): 212 ng·h/mL
Cmax ([1]; male, CD-1, mouse, plasma, ip, 2 mg/kg, individual mice M1-M3, read-out: Cmax): 207 ng/mL
Tmax ([1]; male, CD-1, mouse, IP 2.0 mg/kg, plasma, individual mice M1-M3): 15 min
WuXi Microsomal stability (Mouse Extraction Ratio) [2]: 0.4
Plasma Concentration at 24.00 h ([3]; IV 2.0 mg/kg, Mean): BLQ
Plasma Concentration at 24.00 h ([3]; IV 2.0 mg/kg, individual mice M1-M3): BLQ
Plasma Concentration at 0.08 h [3, 11]: 643.79 ng/mL and 668.53 ng/mL
Plasma Concentration at 0.25 h [3, 11]: 361.85 ng/mL and 533.91 ng/mL
Plasma Concentration at 1.00 h [3, 11]: 124.19 ng/mL and 132.77 ng/mL
Plasma Concentration at 3.00 h [3, 11]: 16.88 ng/mL and 24.59 ng/mL
Plasma Concentration at 5.00 h [3, 11]: 4.53 ng/mL and 8.17 ng/mL and 9.69 ng/mL
Plasma Concentration at 8.00 h [3, 11]: 1.79 ng/mL and BLQ and 4.14 ng/mL
AUCExtra ([3]; IV 2.0 mg/kg, plasma, Mean): 1.68%
AUC0-inf [3, 12]: 451.15 ng·h/mL and 566.58 ng·h/mL
AUC0-last [3, 12]: 441.82 ng·h/mL and 554.77 ng·h/mL
AUCExtra [3, 12]: 0.88% and 2.07% and 2.08%
AUCall [3, 12]: 441.82 ng·h/mL and 554.77 ng·h/mL
C0 [3, 12]: 857.24 ng/mL and 747.58 ng/mL
Cl [3, 12]: 73.89 mL/min/kg and 58.83 mL/min/kg
MRT0-last [3, 12]: 52.2 min and 65.4 min
T½ [3, 12]: 102 min and 47.4 min and 119 min
Vd [3, 12]: 5.06 L/kg and 10.07 L/kg
AUC [3, 13]: 497 ng·h/mL
AUC(0-t) [3, 13]: 497 ng·h/mL
clearance [3, 13]: 66.5 mL/min/kg
concentration at 0.08 h [3, 13]: 638 ng/mL
concentration at 0.25 h [3, 13]: 426 ng/mL
concentration at 1 h [3, 13]: 146 ng/mL
concentration at 3 h [3, 13]: 18.6 ng/mL
concentration at 5 h [3, 13]: 7.46 ng/mL
concentration at 8 h [3, 13]: 2.97 ng/mL
AUC0-inf ([3]; male, CD-1, mouse, plasma, iv, 2 mg/kg, Mean, read-out: AUC0-inf): 506 ng·h/mL
C0 ([3]; male, CD-1, mouse, plasma, iv, 2 mg/kg, Mean, read-out: C0): 786 ng/mL
MRT last ([3]; male, CD-1, mouse, plasma, iv, 2 mg/kg, Mean, read-out: MRT0-last): 57.6 min
half-life ([3]; male, CD-1, mouse, plasma, iv, 2 mg/kg, Mean, read-out: T½ (converted)): 89.4 min
Vd ([3]; male, CD-1, mouse, plasma, iv, 2 mg/kg, Mean, read-out: Vd): 8.32 L/kg
AUC [3, 14]: 496 ng·h/mL
AUC(0-t) [3, 14]: 496 ng·h/mL
clearance [3, 14]: 66.7 mL/min/kg
concentration at 0.08 h [3, 14]: 601 ng/mL
concentration at 0.25 h [3, 14]: 382 ng/mL
concentration at 1 h [3, 14]: 181 ng/mL
concentration at 3 h [3, 14]: 14.3 ng/mL
AUC0-inf ([3]; male, CD-1, mouse, plasma, iv, 2 mg/kg, individual mice M1-M3, read-out: AUC0-inf): 500 ng·h/mL
C0 ([3]; male, CD-1, mouse, plasma, iv, 2 mg/kg, individual mice M1-M3, read-out: C0): 754 ng/mL
MRT last ([3]; male, CD-1, mouse, plasma, iv, 2 mg/kg, individual mice M1-M3, read-out: MRT0-last): 56.4 min
Vd ([3]; male, CD-1, mouse, plasma, iv, 2 mg/kg, individual mice M1-M3, read-out: Vd): 9.82 L/kg

COc1ccc(-c2ccoc2)cc1Nc1ncnc2[nH]cc(-c3cc[nH]n3)c12 [compound 178]
GI50 (Axl+ Ba/F3 cells): 1170 nM
pIC50 [4]: 5.60
WuXi Microsomal stability (Mouse Extraction Ratio) [2]: 0.948
GI50 [5]: 6.8 nM
pIC50 (HER2+/2VE Ba/F3 line): 7.15
